Experimental data taken from US20090042810A1, “AMPK Deficient Animals, Screening Methods, And Related Therapeutics And Diagnostics” (GenExel-Sein, Inc., priority 2007, published 2009).
Entries after “also recorded” stand apart in the source; their conditions may differ.

Legend:
[1] = tested on: AMPK holoenzyme purified from rat liver; assay: In vitro kinase assay, AMPK holoenzyme purified from rat liver with GST-MRLC / GST-ACC2 substrates; assay type: biochemical; settings: 0.3 mM AMP; for Phosphorylation of MRLC by AMPK in presence of inhibitor (32P autoradiography): 10 μM drug added to reaction mixture, GST-MRLC substrate
Excerpt: (§1) Fly strains. AMPK^D1 and AMPKD2 lines were generated by imprecise excision (Lee, et al., FEBS Lett. 550, 5-10 (2003)) of AMPK^G505 line (GenExel Inc.). UAS constructs were microinjected into w^1118 embryos. LKB1- and MRLC-mutant lines were described previously (Jordan et al., J. Cell Biol. 139, 1805-1819 (1997); (Karess et al., Cell 65, 1177-1189 (1991); (Lee et al., Cell Death Differ. 13, 110-1122 (2006)). Other lines were obtained from the Bloomington Stock Center. Microscopic analyses of Drosophila tissues. Dark field, phase contrast, and SEM analyses were performed to visualize embryonic cuticle structure. Immunostaining with various antibodies were performed to visualize embryonic epithelial structure. Brain squash preparation was used to analyze genomic integrity. Kinase assays. Phosphotransferase activities were determined in a reaction mixture consisting of HEPES-Brij Buffer, ATP (γ-^32P), and protein substrates. Protein levels were visualized by immunoblot or Coomassie staining. Phosphorylated proteins were visualized by phospho-specific immunoblot or ^32P-autoradiography. Incorporated phosphates were quantified using P81 filter binding assay. Drosophila strains. The AMPK^G505 fly line with an EP-element inserted at the AMPK locus was obtained from the Genisys Collection of EP lines (GenExel Inc., Korea), and subjected to standard imprecise excision (Lee, et al., FEBS Lett. 550, 5-10 (2003); (Lee et al., Cell Death Differ. 13, 110-1122 (2006)). HA-tagged AMPK (AMPK^WT) and its mutant forms (AMPK^KR, AMPK^TA and AMPK^TD) were subcloned into the pUAST vector and microinjected into w^1118 embryos. LKB1^X5, UAS-LKB1, spaghetti-squash^1 (sqh^1), and MRLC^EE (also referred to as sqh^EE) lines were described previously (Jordan et al., J. Cell Biol. 139, 1805-1819 (1997); (Karess et al., Cell 65, 1177-1189 (1991); (Lee et al., Cell Death Differ. 13, 110-1122 (2006)). […] Deletion sites of AMPK^D1 and AMPK^D2 were determined by genomic-PCR analyses. […]

Drosophila S2 cells = assay: Energy deprivation-induced MRLC phosphorylation in Drosophila S2 cells (immunoblot); assay type: cell-based; settings: 50 mM 2DG for 4 hr
LS174T cells [2] = assay: AMPK and MRLC phosphorylation in LS174T cells (immunoblot / immunostaining); assay type: cell-based, human
LS174T cells [3] = assay: Polarization of LS174T cells (actin, polarity markers, brush border); assay type: cell-based, human
Drosophila AMPK (dAMPK) = assay: In vitro kinase assay, immunoprecipitated Drosophila AMPK with MRLC substrate; assay type: biochemical; settings: 10 μM drug added to reaction solution
Excerpt: as §1, with “strains.” for “strains. The AMPK^G505 fly line with an EP-element inserted at the AMPK locus was obtained from the Genisys Collection of EP lines (GenExel Inc., Korea), and subjected to standard imprecise excision (Lee, et al., FEBS Lett. 550, 5-10 (2003); (Lee et al., Cell Death Differ. 13, 110-1122 (2006)). HA-tagged AMPK (AMPK^WT) and its mutant forms (AMPK^KR, AMPK^TA and AMPK^TD) were subcloned into the pUAST vector and microinjected into w^1118 embryos. LKB1^X5, UAS-LKB1, spaghetti-squash^1 (sqh^1), and MRLC^EE (also referred to as sqh^EE) lines were described previously (Jordan et al., J. Cell Biol. 139, 1805-1819 (1997); (Karess et al., Cell 65, 1177-1189 (1991); (Lee et al., Cell Death Differ. 13, 110-1122 (2006)).”

human MLCK = assay: In vitro kinase assay, active MLCK with MRLC substrate; assay type: biochemical; settings: 10 μM drug added to reaction solution
Excerpt: as §1, with “strains.” for “strains. The AMPK^G505 fly line with an EP-element inserted at the AMPK locus was obtained from the Genisys Collection of EP lines (GenExel Inc., Korea), and subjected to standard imprecise excision (Lee, et al., FEBS Lett. 550, 5-10 (2003); (Lee et al., Cell Death Differ. 13, 110-1122 (2006)). HA-tagged AMPK (AMPK^WT) and its mutant forms (AMPK^KR, AMPK^TA and AMPK^TD) were subcloned into the pUAST vector and microinjected into w^1118 embryos. LKB1^X5, UAS-LKB1, spaghetti-squash^1 (sqh^1), and MRLC^EE (also referred to as sqh^EE) lines were described previously (Jordan et al., J. Cell Biol. 139, 1805-1819 (1997); (Karess et al., Cell 65, 1177-1189 (1991); (Lee et al., Cell Death Differ. 13, 110-1122 (2006)).”

human AMPK (hAMPK) = assay: In vitro kinase assay, immunoprecipitated human AMPK with MRLC substrate; assay type: biochemical; settings: 10 μM drug added to reaction solution
Excerpt: as §1, with “strains.” for “strains. The AMPK^G505 fly line with an EP-element inserted at the AMPK locus was obtained from the Genisys Collection of EP lines (GenExel Inc., Korea), and subjected to standard imprecise excision (Lee, et al., FEBS Lett. 550, 5-10 (2003); (Lee et al., Cell Death Differ. 13, 110-1122 (2006)). HA-tagged AMPK (AMPK^WT) and its mutant forms (AMPK^KR, AMPK^TA and AMPK^TD) were subcloned into the pUAST vector and microinjected into w^1118 embryos. LKB1^X5, UAS-LKB1, spaghetti-squash^1 (sqh^1), and MRLC^EE (also referred to as sqh^EE) lines were described previously (Jordan et al., J. Cell Biol. 139, 1805-1819 (1997); (Karess et al., Cell 65, 1177-1189 (1991); (Lee et al., Cell Death Differ. 13, 110-1122 (2006)).”

Nc1ncnc2c1ncn2[C@@H]1O[C@H](COP(=O)(O)O)[C@@H](O)[C@H]1O [AMP]
Phosphorylation of full-length MRLC by AMPK on addition of AMP ([1]; human GST-MRLC substrate): further enhanced

O=CC[C@@H](O)[C@H](O)[C@H](O)CO [2DG, 2-deoxyglucose]
MRLC phosphorylation (pMRLC) in S2 cells (Drosophila S2 cells): enhanced MRLC phosphorylation
Activation of AMPK (pAMPK) (LS174T cells [2]; 50 mM 2DG, indicated time): activation of AMPK
MRLC phosphorylation (pMRLC) in LS174T cells (LS174T cells [2]; 2DG treatment): 2DG-induced phosphorylation of MRLC
Distribution of villin, CD66/CEA and CD71/transferrin markers (LS174T cells [3]; 50 mM 2DG, 2 hr): became dramatically polarized
Cell shape / actin cytoskeleton polarization and brush border-like structure (LS174T cells [3]; 50 mM 2DG, 2 hr, serum-free media): dramatic change in cell shape to have polarized actin cytoskeleton with a brush border-like structure

c1cc(-c2cnn3cc(-c4ccc(OCCN5CCCCC5)cc4)cnc23)ccn1 [Compound C]
Phosphorylation of MRLC by AMPK in presence of inhibitor (32P autoradiography) [1]: inhibited the phosphorylation
Drosophila AMPK phosphorylation of MRLC in presence of drug (Drosophila AMPK (dAMPK)): specifically inhibited
MLCK phosphorylation of MRLC in presence of drug (human MLCK): not
2DG-induced MRLC phosphorylation, effect of inhibitor (LS174T cells [2]; 10 μM Compound C 30 min before 50 mM 2DG): suppressed
Human AMPK phosphorylation of MRLC in presence of drug (human AMPK (hAMPK)): specifically inhibited
2DG-induced actin polarization, effect of inhibitor or siRNA (LS174T cells [3]; 2DG 2 hr, Compound C 10 μM 30 min before 2DG, or siRNA transfection, listed as CC): inhibited; also recorded: suppressed

O=S(=O)(c1cccc2c(I)cccc12)N1CCCNCC1 [ML-7]
Phosphorylation of MRLC by AMPK in presence of inhibitor (32P autoradiography) [1]: did not
Drosophila AMPK phosphorylation of MRLC in presence of drug (Drosophila AMPK (dAMPK)): not
MLCK phosphorylation of MRLC in presence of drug (human MLCK): specifically inhibited
